Laboratory results: patent publication US11510980B2, “Brartemicin analogues” (VICTORIA LINK LTD, priority 2017, dated 2022)

Assays:
[1] = system: wild-type GM-CSF BMDMs; assay: Cytokine/chemokine production by wild-type GM-CSF BMDMs on ligand-coated plates; assay type: cell-based, C57BL/6 mice; conditions: wild-type BMDMs, coated plates 0.1 or 1 nmol/well, 24 hours, ELISA
Procedure: (§1) Preparation of ligand-coated plates: Brartemicin analogues 9a-9i, TDM (Carbosynth, Sigma Aldrich), and TDB^14 were dissolved in CHCl3:MeOH (2:1, 1 mM), diluted in isopropanol ([…]) and added to 96-well plates (20 μL/well). The solvents were evaporated and the coated plates were used immediately.
Murine bone-marrow derived macrophages: For the preparation of murine bone-marrow derived macrophages, bone marrow cells were collected from the tibias and femurs of C57BL/6 mice and cultured (250,000 cells/mL) in complete RPMI media [RPMI-1640 (Gibco) with 10% heat inactivated fetal bovine serum (Gibco), 100 unit/mL penicillin-streptomycin (Gibco) and 2 mM Glutamax (Gibco)] supplemented with 50 ng/mL GM-CSF (clone X63/GM-CSF murine cells). Cells were incubated at 37° C. (5% CO2) for 8 days (cells fed by replacing half the media on days 3 and 6). On day 8, all media was removed and the cells were washed with Dulbecco's Phosphate-Buffered Saline (DPBS, Gibco) to remove any loosely-adherent cells. The BMDMs were harvested with StemPro Acutase (1 mL/well, 15 minutes at room temperature, Gibco) and seeded onto a pre-coated 96-well plate. The supernatant was collected and analysed for cytokine/chemokine production after 24 hours.
Cytokine analysis: IL-1β, IFN-γ, IL-6, TNF-α (BD Biosciences), IL-17, and MIP-2 (R&D) levels were determined via sandwich ELISA according to the manufacturer's instructions.
First, the ability of the compounds to activate GM-CSF BMDMs was determined by monitoring the secretion of the inflammatory cytokines TNF, IL-6, and IL-1β and the chemokine, MIP-2, in a ligand-coated plate assay (FIG. 2).
To gain insight into the capacity of the 2G-series of brartemicin analogues to induce an inflammatory immune response, the analogues were then screened for their ability to activate WT and Mincle^−/− BMDMs, with cellular activation being determined by the measurement of IL-1B using ELISA (FIG. 6).

[2] = system: C57BL/6 mice; assay: Delayed-type hypersensitivity immunisation with OVA in oil-in-water emulsion; assay type: in vivo
Procedure: Delayed-type hypersensitivity: Mice were sensitised by subcutaneous injection with oil-in-water emulsions (mineral oil/Tween-80/PBS, 9:1:90, v/v/v) containing OVA only (200 μg), OVA+TDB (OVA=200 μg, TDB=0.3 μmol), OVA+9a (OVA=200 μg, 9a=0.3 μmol) or no OVA. After seven days, the mice were challenged with OVA (100 μg/footpad) and after a further seven days, the mice were sacrificed and their spleens harvested. For in vitro restimulation, splenocytes were restimulated with OVA and analysed for spenocyte number (measured at 450 nm after 3 hours, Cell Count Reagent SF, Nacalai Tesque Inc.), IFN-γ production, and IL-17 production. Footpad swelling was measured using a venier caliper pre-challenge, 24 hours post-challenge, and 48 hours post-challenge. Sera were collected from each mouse on days 0, 7, and 14 and analysed for OVA-specific antibody titers by ELISA using HRP coupled goat anti-mouse IgG (GE Health-care), IgG1, IgG2b, IgG2c, and IgG3 (SouthernBiotec). EC50 were defined by plotting the absorbance at 450 nm against log of serum concentration. Antibody titration curves were plotted using GraphPad Prism7 (GraphPad Software).
Compound 9a was then evaluated in vivo to confirm its capacity to induce a Th1 antigen-specific response using a delayed-type hypersensitivity immunisation protocol. To this end, four groups of C57BL/6 mice were immunised by subcutaneous injection with oil-in-water emulsions containing either OVA only, OVA+C18dMeBrar (9a), OVA+TDB, or no OVA. After seven days the mice were challenged with OVA (100 μg per footpad) and after a further seven days, the splenocytes were isolated and restimulated with OVA at three concentrations (10, 30, or 100 μg/mL). The immune response was measured by determining footpad swelling, production of IFN-γ and IL-17 (FIG. 7b), T cell proliferation (FIG. 4a), and antibody titres (FIG. 4c). […] Accordingly, the ability of C18dMeBrar (9a) to lead to an enhanced Th1 immune response was even more striking. This overall immune profile was also reflected in the antibody production by immunised mice. […] A high IgG2c:IgG1 ratio is commonly associated with Th1 responses and a lower ratio is associated with Th2 responses. The production of IgG2c in mice immunised with C18dMeBrar increased three-fold as compared to OVA alone, providing evidence that C18dMeBrar induces a Th1-biased immune response.

[3] = biological target: T1, hMincle-Ig (Homo sapiens, UniProt Q9ULY5); assay: In vitro Mincle binding assay (ELISA) with hMincle-Ig fusion protein; conditions: plate-coated ligand 0.1 nmol/well
T1 construct: using soluble Mincle-Ig fusion-proteins; made in house
T1 sequence (Q9ULY5 41-219 limits assumed): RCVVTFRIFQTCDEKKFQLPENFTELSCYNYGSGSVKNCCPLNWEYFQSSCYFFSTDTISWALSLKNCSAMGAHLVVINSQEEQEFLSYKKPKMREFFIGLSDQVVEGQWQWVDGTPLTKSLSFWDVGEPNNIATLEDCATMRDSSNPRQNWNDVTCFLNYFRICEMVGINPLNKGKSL
Procedure: as §1
(§2) In vitro Mincle binding assay: The preparation of mMincle- and hMincle-Ig fusion proteins have been previously described. Plate-coated glycolipids 9a-i, TDB, and TDM were incubated with hMincle-Ig, mMincle-Ig, or hIgG1-Fc (Ig) [3 μg/mL in binding buffer (20 mM Tris-HCl, 150 mM NaCl, 1 mM CaCl2), 2 mM MgCl2, pH 7.0)]. Detection of bound protein was achieved via incubation with anti-hIgG-HRP followed by the addition of a colorimetric substrate and measurement of OD at 450 nm. Background was accounted for by subtracting the hIgG1-Fc OD450 values from fusion protein OD450 values
(§3) The synthesised brartemicin analogues prepared in Example 1 were first tested for their ability to bind to both human and murine Mincle in an enzyme-linked immunosorbent assay (ELISA) using soluble Mincle-Ig fusion-proteins (FIG. 1a).

[4] = biological target: T2, mMincle-Ig (Mus musculus, UniProt Q9R0Q8); assay: In vitro Mincle binding assay (ELISA) with mMincle-Ig fusion protein; design: species or system murine; conditions: plate-coated ligand 0.1 nmol/well
T2 construct: using soluble Mincle-Ig fusion-proteins; made in house
T2 sequence (Q9R0Q8 46-214 limits assumed): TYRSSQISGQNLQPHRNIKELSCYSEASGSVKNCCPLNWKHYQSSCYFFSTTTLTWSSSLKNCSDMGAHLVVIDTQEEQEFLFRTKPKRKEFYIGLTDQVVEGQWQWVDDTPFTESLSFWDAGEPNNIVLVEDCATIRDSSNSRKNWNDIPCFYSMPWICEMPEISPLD
Procedure: as §1, §2, §3

[5] = biological target: T3, mMincle+FcRγ (Mus musculus, UniProt Q9R0Q8); assay: 2B4-NFAT-GFP reporter cells expressing mMincle+FcRγ; assay type: cell-based, murine; conditions: ligand-coated plates 0.01, 0.1 or 1 nmol/well, 18 hours
T3 construct: expressed in transfected cells; host or cells: 2B4-NFAT-GFP reporter cells
T3 sequence (Q9R0Q8 1-214): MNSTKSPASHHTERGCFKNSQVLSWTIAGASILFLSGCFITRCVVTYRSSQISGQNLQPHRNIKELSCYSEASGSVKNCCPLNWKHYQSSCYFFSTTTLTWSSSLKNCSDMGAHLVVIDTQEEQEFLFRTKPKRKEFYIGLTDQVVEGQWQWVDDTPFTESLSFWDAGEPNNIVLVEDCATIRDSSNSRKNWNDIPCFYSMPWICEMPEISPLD
T3 sequence (P20491 19-86 partner): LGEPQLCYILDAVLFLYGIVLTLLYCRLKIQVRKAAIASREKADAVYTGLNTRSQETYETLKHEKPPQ
Procedure: as §1
(§4) 2B4-NFAT-GFP reporter cells: 2B4-NFAT-GFP reporter cells expressing mMincle+FcRγ, hMincle+FcRγ, or FcRγ only have been previously described. […] The reporter cells were harvested, stained with propidium iodide, and analysed for NFAT-GFP expression using flow cytometry (FACS Calibur).
(§5) To determine whether the Mincle binding observed in Example 1 correlated with cellular activation, nuclear factor of activated T cells (NFAT)-green fluorescent protein (GFP) reporter cells expressing mMincle or hMincle coupled to FcRγ were stimulated using plates coated with TDM, TDB, brartemicin (9i), or analogues 9a-9h.
(§6) Activation of the reporter cells was measured through the production of GFP, which was monitored by flow cytometry (FIGS. 1b and 3c).
(§7) With the compounds 43a-h in hand, the ability of these analogues to bind and signal through Mincle was assessed (FIG. 5). Accordingly, NFAT-GFP reporter cells expressing mMincle+FcRγ, hMincle+FcRγ, or FcRγ-only were stimulated with the 2G-brartemicin analogues 43a-h, TDB, iPrOH, or the p-OC18H37 substituted analogue, 9f. Reporter cell activation was measured by the production of NFAT-GFP, which was analysed by flow cytometry.

[6] = biological target: T4, hMincle+FcRγ (Homo sapiens, UniProt Q9ULY5); assay: 2B4-NFAT-GFP reporter cells expressing hMincle+FcRγ; assay type: cell-based; conditions: ligand-coated plates 0.01, 0.1 or 1 nmol/well, 18 hours
T4 construct: expressed in transfected cells; host or cells: 2B4-NFAT-GFP reporter cells
T4 sequence (Q9ULY5 1-219): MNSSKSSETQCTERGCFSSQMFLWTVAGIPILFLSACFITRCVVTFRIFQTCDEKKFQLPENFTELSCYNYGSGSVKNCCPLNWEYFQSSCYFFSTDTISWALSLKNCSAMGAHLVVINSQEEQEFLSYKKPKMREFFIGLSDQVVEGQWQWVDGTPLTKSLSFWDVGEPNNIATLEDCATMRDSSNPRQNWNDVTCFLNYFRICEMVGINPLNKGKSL
Procedure: as §1, §4, §5, §6, §7

Molecule | IL-1β production [1] | IL-6 production [1] | MIP-2 production [1] | TNF production [1] | Th1 immune response / adjuvant activity in vivo ([2]; s.c. OVA 200 μg + adjuvant 0.3 μmol, oil-in-water emulsion) | footpad swelling ([2]; s.c. OVA 200 μg + adjuvant 0.3 μmol, OVA challenge 100 μg/footpad) | IL-17 production by splenocytes restimulated with OVA ([2]; s.c. OVA 200 μg + adjuvant 0.3 μmol, restimulation 10, 30 or 100 μg/mL OVA) | antigen specific IFN-γ production, all concentrations of OVA ([2]; s.c. OVA 200 μg + adjuvant 0.3 μmol, splenocytes restimulated with 10, 30 or 100 μg/mL OVA) | IgG1 antibody production ([2]; serum, ELISA) | IgG2b antibody production ([2]; serum, ELISA) | IgG2c antibody production ([2]; serum, ELISA) | production of OVA-specific IgG antibodies ([2]; serum, ELISA) | binding to hMincle-Ig (ELISA, OD at 450 nm) [3] | binding to mMincle-Ig (ELISA, OD at 450 nm) [4] | activation of mMincle NFAT-GFP reporter cells (GFP by flow cytometry) [5] | activation of hMincle NFAT-GFP reporter cells (GFP by flow cytometry) [6]
CCCCCCCCCCCCCCCCCCCCCC(=O)OC[C@H]1O[C@H](O[C@H]2O[C@H](COC(=O)CCCCCCCCCCCCCCCCCCCCC)[C@@H](O)[C@H](O)[C@H]2O)[C@H](O)[C@@H](O)[C@@H]1O [TDB, trehalose dibehenate, reference compound] | significant production | significant production | significant production | significant production | limited efficacy | neither 9a nor TDB induced any | neither 9a nor TDB induced any | did not lead to a significant increase | showed increases | showed increases | showed increases | elevated the production of IgG antibodies |  |  |  | 
trehalose dimycolate [TDM, reference compound] | significant production | significant production | significant production | significant production |  |  |  |  |  |  |  |  |  |  |  | 
CCCCOc1ccc(C(=O)OCC2O[C@H](O[C@H]3OC(COC(=O)c4ccc(OCCCC)cc4O)[C@@H](O)C(O)C3O)C(O)C(O)[C@@H]2O)c(O)c1 (stereo partly drawn) [9c, 6,6′-Di-O-(2-hydroxy-4-butoxybenzoyl)-α,α′-D-trehalose] |  |  | induced MIP-2 |  |  |  |  |  |  |  |  |  | did not bind hMincle- or mMincle-Ig to any great extent | did not bind hMincle- or mMincle-Ig to any great extent | able to activate mMincle and hMincle only at high ligand concentrations | able to activate mMincle and hMincle only at high ligand concentrations
O=C(OCC1O[C@H](O[C@H]2OC(COC(=O)c3ccc(O)cc3O)[C@@H](O)C(O)C2O)C(O)C(O)[C@@H]1O)c1ccc(O)cc1O (stereo partly drawn) [9e, 6,6′-Di-O-(2,4-dihydroxybenzoyl)-α,α′-D-trehalose] | did not induce the production of any of the cytokines measured | did not induce the production of any of the cytokines measured | did not induce the production of any of the cytokines measured | did not induce the production of any of the cytokines measured |  |  |  |  |  |  |  |  | did not bind hMincle- or mMincle-Ig to any great extent | did not bind hMincle- or mMincle-Ig to any great extent | did not significantly activate mMincle | 
COc1ccc(C(=O)OCC2O[C@H](O[C@H]3OC(COC(=O)c4ccc(OC)cc4O)[C@@H](O)C(O)C3O)C(O)C(O)[C@@H]2O)c(O)c1 (stereo partly drawn) [9d, 6,6′-Di-O-(2-hydroxy-4-methoxybenzoyl)-α,α′-D-trehalose] | did not induce the production of any of the cytokines measured | did not induce the production of any of the cytokines measured | did not induce the production of any of the cytokines measured | did not induce the production of any of the cytokines measured |  |  |  |  |  |  |  |  | did not bind hMincle- or mMincle-Ig to any great extent | did not bind hMincle- or mMincle-Ig to any great extent |  | only modest activation of hMincle at a high ligand concentration
